The record followed here is patent US8377980B2, “Hepatitis C virus inhibitors” (Bristol-Myers Squibb Company, priority 2009, dated 2013).

Molecules are shown by their SMILES.

The test system of one experiment is HCV 1b genotype. The experiment in a line: HCV Replicon assay (HCV 1b genotype). Format: cell-based. Particulars: Hepatitis C virus; HCV 1b genotype replicon; Effective 50% inhibitory concentration; read-out: EC50. The procedure: An HCV Replicon assay was utilized in the present disclosure, and was prepared, conducted and validated as described in commonly owned PCT/US2006/022197 and in O'Boyle et al., Antimicrob. Agents Chemother., 49(4):1346-1353 (April 2005). Assay methods incorporating luciferase reporters have also been used as described (Apath.com).
HCV-neo replicon cells and replicon cells containing resistance substitutions in the NS5A region were used to test the currently described family of compounds. The compounds were determined to have differing degrees of reduced inhibitory activity on cells containing mutations vs. the corresponding inhibitory potency against wild-type cells. Thus, the compounds of the present disclosure can be effective in inhibiting the function of the HCV NS5A protein and are understood to be as effective in combinations as previously described in application PCT/US2006/022197 and commonly owned WO 04/014852. It should be understood that the compounds of the present disclosure can inhibit multiple genotypes of HCV. […] In one embodiment, compounds of the present disclosure are inhibitory versus 1a, 1b, 2a, 2b, 3a, 4a, and 5a genotypes. EC50 values against HCV 1b are as follows.
Background: Replicon systems follow genome replication, usually without infectious particles.
One may read the EC50 as the concentration that produces a half-maximal response. With `COC(=O)NC(C(=O)N1[C@@H]2C[C@@H]2C[C@H]1c1nc(-c2ccc(-c3ccc(-c4c[nH]c([C@@H]5C[C@H]6C[C@H]6N5C(=O)[C@@H](NC(=O)OC)[C@H]5CCCOC5)n4)cc3)cc2)c(Cl)[nH]1)[C@H]1CCCOC1` (stereo partly shown) [ZY6], the EC50 was determined as 0.0108 nM.

The experiment is the same for the next values; noted with them: Hepatitis C virus; HCV 1b genotype replicon; range class; read-out: EC50-Range.
Consider `COC(=O)N[C@H](C(=O)N1[C@@H](C)CC[C@H]1c1nc(-c2ccc(-c3ccc(-c4nc([C@@H]5CC[C@H](C)N5C(=O)[C@@H](NC(=O)OC)C5CCOCC5)[nH]c4F)cc3)cc2)c[nH]1)C1CCOCC1` [DSTL-9], for which the EC50 is 0.001 to 0.01 nM. Same read-out and setting: under `COC(=O)N[C@H](C(=O)N1CCC[C@H]1c1nc(-c2ccc(-c3ccc(-c4nc([C@@H]5CCCN5C(=O)[C@@H](NC(=O)OC)C(C)C)[nH]c4Br)cc3)cc2)c[nH]1)C(C)C` [JLR-1] stands 0.001 to 0.01 nM; under `COC(=O)N[C@H](C(=O)N1C[C@@H](C)C[C@H]1c1ncc(-c2ccc(-c3ccc(-c4[nH]c([C@@H]5C[C@H](C)CN5C(=O)[C@@H](NC(=O)OC)C5CCOCC5)nc4Cl)cc3)cc2)[nH]1)C1CCOCC1` [GW4], 0.01 to 0.1 nM; under `COC(=O)N[C@H](C(=O)N1C[C@@H](C)C[C@H]1c1nc(Cl)c(-c2ccc(-c3ccc(-c4[nH]c([C@@H]5C[C@H](C)CN5C(=O)[C@@H](NC(=O)OC)C(C)C)nc4Cl)cc3)cc2)[nH]1)C(C)C` [GW8], 0.001 to 0.01 nM. Same read-out and setting: under `COC(=O)N[C@H](C(=O)N1CCC[C@H]1c1nc(-c2ccc(-c3ccc(-c4nc([C@@H]5CCCN5C(=O)[C@@H](NC(=O)OC)C(C)C)[nH]c4I)cc3)cc2)c[nH]1)C(C)C` [JLR-2] stands 0.001 to 0.01 nM; under `COC(=O)N[C@H](C(=O)N1CCC[C@H]1c1ncc(-c2ccc(-c3ccc(-c4[nH]c([C@@H]5CCCN5C(=O)[C@@H](NC(=O)OC)C(C)C)nc4-c4ccnn4C)cc3)cc2)[nH]1)C(C)C` [OL19], 0.01 to 0.1 nM. Turning to `COCC[C@H](NC(=O)OC)C(=O)N1[C@@H]2C[C@@H]2C[C@H]1c1nc(-c2ccc(-c3ccc(-c4nc([C@@H]5C[C@H]6C[C@H]6N5C(=O)[C@H](CCOC)NC(=O)OC)[nH]c4Cl)cc3)cc2)c[nH]1` [ZY8], the EC50 lay within 0.001 to 0.01 nM. `COC(=O)N[C@H](C(=O)N1[C@@H](C)CC[C@H]1c1nc(-c2ccc(-c3ccc(-c4nc([C@@H]5CC[C@H](C)N5C(=O)[C@@H](NC(=O)OC)C5CCOCC5)[nH]c4F)cc3)cc2)c(F)[nH]1)C1CCOCC1` [DSTL-10]: the EC50 lay in the range of 0.001 to 0.01 nM.

For `COC(=O)NC(C(=O)N1[C@@H]2C[C@@H]2C[C@H]1c1nc(-c2ccc(-c3ccc(-c4c[nH]c([C@@H]5C[C@H]6C[C@H]6N5C(=O)[C@@H](NC(=O)OC)[C@H]5CCCOC5)n4)cc3)cc2)c(Cl)[nH]1)[C@H]1CCCOC1` (stereo partly shown) [ZY6], the EC50 fell in the range of 0.01 to 0.1 nM.

Regarding `COC(=O)N[C@H](C(=O)N1C[C@@H](C)C[C@H]1c1ncc(-c2ccc(-c3ccc(-c4[nH]c([C@@H]5C[C@H](C)CN5C(=O)[C@@H](NC(=O)OC)C(C)C)nc4Cl)cc3)cc2)[nH]1)C(C)C` [GW3], the EC50 lay within 0.001 to 0.01 nM. The same measure, in the same setting: under `COCC[C@H](NC(=O)OC)C(=O)N1[C@@H]2C[C@@H]2C[C@H]1c1nc(-c2ccc(-c3ccc(-c4nc([C@@H]5C[C@H]6C[C@H]6N5C(=O)[C@H](CCOC)NC(=O)OC)[nH]c4Cl)cc3)cc2)c(Cl)[nH]1` [ZY7, dimethyl (2S,2′S)-1,1′-((1R,1′R,3S,3′S,5R,5′R)-3,3′-(4,4′-(biphenyl-4,4′-diyl)bis(5-chloro-1H-imidazole-4,2-diyl))bis(2-azabicyclo[3.1.0]hexane-3,2-diyl))bis(4-methoxy-1-oxobutane-2,1-diyl)dicarbamate] stands 0.001 to 0.01 nM; under `COC(=O)N[C@H](C(=O)N1[C@@H]2C[C@@H]2C[C@H]1c1nc(-c2ccc(-c3ccc4c(ccc5[nH]c([C@@H]6C[C@H]7C[C@H]7N6C(=O)[C@@H](NC(=O)OC)C6CCOCC6)nc54)c3)cc2)c(Cl)[nH]1)C1CCOCC1` [DSTL-2], 0.01 to 0.1 nM.
